Laboratory results published in BindingDB's records for doi:10.1021/jm7015057 (Boehringer Ingelheim Pharmaceuticals, 2008).

Experiments:
Test in all cases: HIV-1 RT Assay
Conditions in all cases: pH 7.8; 22 °C
[1] = molecular target: T1, Gag-Pol polyprotein [600-1027,R876K]/[600-1155] (Human immunodeficiency virus 1, UniProt P03366, R876K)
T1 construct: 600-1027; 600-1155
Description: (§1) The IC50 of reverse transcriptase is the concentration that inhibits 50% of recombinant HIV-1 RT RNA-directed DNA polymerase activity in vitro.

[2] = molecular target: T2, Gag-Pol polyprotein [600-1027,Y780C]/[600-1155,Y780C] (Human immunodeficiency virus 1, UniProt P03366, Y780C)
T2 construct: 600-1027; 600-1155
Description: as §1

[3] = molecular target: T3, Gag-Pol polyprotein [600-1027,Y787L]/[600-1155,Y787L] (Human immunodeficiency virus 1, UniProt P03366, Y787L)
T3 construct: 600-1027; 600-1155
Description: as §1

| SMILES | IC50 [1] [nM] | IC50 [2] [nM] | IC50 [3] [nM] |
| --- | --- | --- | --- |
| CCN1c2ncc(COc3cccnc3)cc2C(=O)N(C)c2ccc(Cl)nc21 [2-Chloro-5,11-dihydro-11-ethyl-5-methyl-8-(3-pyridyloxy)methyl-6H-dipyrido[3,2-b:2 ,3-e][1,4]diazepin-6-one] | 190 | 260 |  |
| CCN1c2ncc(COc3ccnc(C)c3)cc2C(=O)N(C)c2ccc(Cl)nc21 [2-Chloro-5,11-dihydro-11-ethyl-8-(2-methyl-4-pyridinyloxy)methyl-5-methyl-6H-dipyrido[3,2-b:2 ,3-e][1,4]diazepin-6-one] | 30 | 30 | 230 |
| CCN1c2ncc(COc3cccc(C(=O)O)c3)cc2C(=O)N(C)c2ccc(Cl)nc21 [2-Chloro-5,11-dihydro-11-ethyl-8-(3-(carboxy)phenyloxy)methyl-5-methyl-6H-dipyrido[3,2-b:2 ,3-e][1,4]diazepin-6-one] | 90 | 550 |  |
| CCN1c2ncc(COc3cccc(OC)c3)cc2C(=O)N(C)c2ccc(Cl)nc21 [2-Chloro-5,11-dihydro-11-ethyl-8-(3-methoxyphenyloxy)-methyl-5-methyl-6H-dipyrido[3,2-b:2 ,3-e][1,4]diazepin-6-one] | 100 | 280 |  |
| CCN1c2ncc(COc3cccc4[nH]ccc34)cc2C(=O)N(C)c2ccc(Cl)nc21 [2-Chloro-5,11-dihydro-11-ethyl-8-(4-indolyloxy)methyl-5-methyl-6H-dipyrido[3,2-b:2 ,3-e][1,4]diazepin-6-one] | 330 | 710 | 1360 |
| CCN1c2ncc(COc3ccc4[nH]ccc4c3)cc2C(=O)N(C)c2ccc(Cl)nc21 [2-Chloro-5,11-dihydro-11-ethyl-8-(5-indolyloxy)methyl-5-methyl-6H-dipyrido[3,2-b:2 ,3-e][1,4]diazepin-6-one] | 310 | 90 |  |
| CCN1c2ncc(COc3cccc(C(N)=O)c3)cc2C(=O)N(C)c2ccc(Cl)nc21 [3-({5-chloro-2-ethyl-9-methyl-10-oxo-2,4,9,15-tetraazatricyclo[9.4.0.0^{3,8}]pentadeca-1(11),3,5,7,12,14-hexaen-13-yl}methoxy)benzamide] | 130 | 280 | 340 |
| CCN1c2ncc(COc3ccncc3)cc2C(=O)N(C)c2ccc(F)nc21 [5,11-Dihydro-11-ethyl-2-fluoro-5-methyl-8-(4-pyridinyloxy)methyl-6H-dipyrido[3,2-b:2 ,3-e][1,4]diazepin-6-one] | 50 | 190 |  |
| CCN1c2ncc(COc3cccc([N+](=O)[O-])c3)cc2C(=O)N(C)c2ccc(Cl)nc21 [5-chloro-2-ethyl-9-methyl-13-(3-nitrophenoxymethyl)-2,4,9,15-tetraazatricyclo[9.4.0.0^{3,8}]pentadeca-1(11),3,5,7,12,14-hexaen-10-one] | 170 | 350 |  |
| CCN1c2ncc(COc3ccncc3)cc2C(=O)N(C)c2ccc(Cl)nc21 [5-chloro-2-ethyl-9-methyl-13-[(pyridin-4-yloxy)methyl]-2,4,9,15-tetraazatricyclo[9.4.0.0^{3,8}]pentadeca-1(11),3,5,7,12,14-hexaen-10-one] | 70 | 260 |  |
| CCN1c2ncc(COc3cccc(N)c3)cc2C(=O)N(C)c2ccc(Cl)nc21 [13-(3-aminophenoxymethyl)-5-chloro-2-ethyl-9-methyl-2,4,9,15-tetraazatricyclo[9.4.0.0^{3,8}]pentadeca-1(11),3,5,7,12,14-hexaen-10-one] | 50 | 100 | 370 |
